Laboratory results reported in patent publication US7626026B2, “Pyrrolo-indole and pyrrolo-quinoline derivatives as prodrugs for tumour treatment” (University of Bradford, priority 2001, dated 2009).
Marks after values point to notes of the source that are not given here.

Test system: Chinese Hamster Ovary (CHO) cell
Test: MTT cytotoxicity in CHO cells, with and without activation by NADPH-supplemented rat liver microsomes
Type: cell-based
Settings: for IC50: Cricetulus griseus, CHO, cells incubated 24 hours, MTT, mean±sd for three experiments
Protocol: Test compound (synthesised in example 3) activation by CYP enzymes was carried out using NADPH supplemented rat liver microsomes; Incubation mixtures comprised microsomal protein (1 mg/ml), reduced-nicotinamide adenine dinucleotide phosphate (NADPH, 10 mM) and phosphate buffer (pH7.4, 100 mM). Test compound (0.01-100 μM final concentration) in DMSO (20 μl) was added to the microsomal incubation mixtures (0.5 ml) and incubated for 60 min at 37C. Control incubates contained test compound and microsomal incubation mixture terminated at 0 time. All incubations were terminated by addition of an equal volume of ice-cold acetonitrile and microfuged for 3 min. Aliquots of the supernatant were added to cells in culture.
Chinese Hamster Ovary (CHO) cell were grown in MEM supplemented with. 10% dialysed FBS and G418 (400 μg/ml). All cells were seeded at an initial density of 1000 cells/well in 96-well-plates, incubation at 37° C. for 24 hours. Aliquots (0.1 ml) of the test compound/microsomal/acetonitrile supernatnant was then added to the CHO cells. Cells were then incubated for 24 hours at 37° C., 5% CO2. After this time period MTT (50 μl; 2 mg/ml stock solution) was added to each well and cells were incubated for a further 4 hours. During this time period MTT, a hydrogen acceptor tetrazolium salt, is reduced to formazan dye by mitochondrial dehydrogenase of viable cells. The media was aspirated from cells and DMSO (100 μl/well) added to solubilise the coloured formazan dye. Absorbance of the formazan dye in the 96-well-plates was then determined at 550 nm. The effect of microsomal activation by the test compound on the arrest of CHO cell growth could be determined by comparing the IC50 (concentration that inhibited cell growth by 50%) with and without microsomal incubation.
Effect of compound 3.8 and its metabolism (activation) product on the survival of Chinese hamster ovary cells in culture. Cells were incubated for 24 hours with supernatants from reaction mixtures of compound 3.8 with NADPH fortified rat liver microsomes. […] Values are expressed as the mean±sd for three experiments. […]

`CCOC(=O)c1cc2c3c(ccc2[nH]1)N(C(=O)c1cc2cc(OC)ccc2[nH]1)CC3CCl` (stereo not drawn) [3.8, Ethyl 1-(chloromethyl)-3-((5-methoxy-1H-indol-2-yl)carbonyl)-1,2-dihydro-3H-pyrrolo[3,2-e]indole-7-carboxylate] was tested, and the “AF (activity factor, ratio of IC50 cytotoxicity values obtained for ± activation)” value (CHO cells, IC50 −activation / IC50 +activation) was 71.7*, the IC50 (control incubate terminated at 0 time (no microsomal activation)) was 4.3 ± 0.41 µM and the IC50 (supernatant after 60 min incubation at 37C with NADPH-fortified rat liver microsomes) was 0.06 ± 0.02 µM.
